Measured values from PubChem BioAssay AID330 (DTP/NCI, 2004).
Where “and” joins values, the source holds several entries; their conditions need not be identical. Equal entries are not always repeated. Inconclusive results and toxic doses are left out. The calls were made as follows: active = survival T/C of 150% or more; inactive = T/C below 125% in these data.

Tested on: P388 leukemia ip, CD2F1 mice, survival T/C
Experiment: NCI In Vivo Anticancer Drug Screen. Data for tumor model P388 Leukemia (intraperitoneal) in CD2F1 (CDF1) mice
Conditions: endpoint: median survival time, higher = longer survival
Procedure, shortened: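 Mice carrying the transplanted tumor received test compound or vehicle. Survival was recorded in each group, and the value is the treated-group measurement divided by that of the vehicle-treated control group.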

[1] = dose: 50.0 mg/kg/injection, schedule: Q01DX009 (ip), vehicle: saline with Tween-80
[2] = dose: 100.0 mg/kg/injection, schedule: Q01DX009 (ip), vehicle: saline with Tween-80
[3] = dose: 200.0 mg/kg/injection, schedule: Q01DX009 (ip), vehicle: saline with Tween-80

Measured: T/C

CC#CCOCC(O)CCl (stereo not drawn)
inactive: dose: 66.0 mg/kg/injection, schedule: Q04DX003 (ip), vehicle: saline 110 % of control | dose: 100.0 mg/kg/injection, schedule: Q04DX003 (ip), vehicle: saline 100 % of control | dose: 150.0 mg/kg/injection, schedule: Q04DX003 (ip), vehicle: saline 120 % of control

O=[N+]([O-])c1nncs1
inactive: dose: 6.25 mg/kg/injection, schedule: Q04DX003 (ip), vehicle: saline with Tween-80 105 % of control | dose: 12.5 mg/kg/injection, schedule: Q04DX003 (ip), vehicle: saline with Tween-80 100 % of control | dose: 25.0 mg/kg/injection, schedule: Q04DX003 (ip), vehicle: saline with Tween-80 110 % of control

Cc1cccc(O)c1C(=O)OC(C)c1cccc2nc3c(C(=O)O)cccc3nc12 (stereo not drawn)
inactive: dose: 0.5 mg/kg/injection, schedule: Q01DX005 (ip), vehicle: DMSO 108 % of control | dose: 1.0 mg/kg/injection, schedule: Q01DX005 (ip), vehicle: DMSO 92 % of control | dose: 2.0 mg/kg/injection, schedule: Q01DX005 (ip), vehicle: DMSO 100 % of control | dose: 4.0 mg/kg/injection, schedule: Q01DX005 (ip), vehicle: Klucel (hydroxypropylcellulose) (HPC) 100 % of control | dose: 6.25 mg/kg/injection, schedule: Q01DX005 (ip), vehicle: DMSO 119 % of control | dose: 8.0 mg/kg/injection, schedule: Q01DX005 (ip), vehicle: Klucel (hydroxypropylcellulose) (HPC) 101 % of control | dose: 12.5 mg/kg/injection, schedule: Q01DX005 (ip), vehicle: DMSO 114 % of control | dose: 16.0 mg/kg/injection, schedule: Q01DX005 (ip), vehicle: Klucel (hydroxypropylcellulose) (HPC) 101 % of control | dose: 32.0 mg/kg/injection, schedule: Q01DX005 (ip), vehicle: Klucel (hydroxypropylcellulose) (HPC) 87 % of control

CCCCN(CCCC)CC(O)c1c2cccc(Cl)c2cc2c(Cl)cccc12 (stereo not drawn)
inactive: [1] 98 % of control and 99 % of control | [2] 99 % of control and 92 % of control | [3] 90 % of control | dose: 400.0 mg/kg/injection, schedule: Q01DX009 (ip), vehicle: saline with Tween-80 90 % of control

COc1ccc2nc(-c3ccccc3)cc(C(=O)/C=C/c3ccc(N(C)C)cc3)c2c1
inactive: dose: 50.0 mg/kg/injection, schedule: Q01DX005 (ip), vehicle: saline with Tween-80 89 % of control | dose: 100.0 mg/kg/injection, schedule: Q01DX005 (ip), vehicle: saline with Tween-80 86 % of control | dose: 200.0 mg/kg/injection, schedule: Q01DX005 (ip), vehicle: saline with Tween-80 89 % of control

CC(=O)O.CC(=O)O.CC(=O)O.CC(=O)O.O=C(O)C1C[N-]CC(C(=O)O)C1.O=C(O)C1C[N-]CC(C(=O)O)C1.[Cu+].[Cu+] (stereo not drawn)
inactive: dose: 3.12 mg/kg/injection, schedule: Q01DX005 (ip), vehicle: suspension in saline 95 % of control | dose: 6.25 mg/kg/injection, schedule: Q01DX005 (ip), vehicle: suspension in saline 99 % of control | dose: 12.5 mg/kg/injection, schedule: Q01DX005 (ip), vehicle: suspension in saline 94 % of control

CCCCN1C(=O)C(CC(=O)OCC)SC1=S (stereo not drawn)
inactive: dose: 60.0 mg/kg/injection, schedule: Q01DX005 (ip), vehicle: Klucel (hydroxypropylcellulose) (HPC) 95 % of control | dose: 120.0 mg/kg/injection, schedule: Q01DX005 (ip), vehicle: Klucel (hydroxypropylcellulose) (HPC) 97 % of control | dose: 240.0 mg/kg/injection, schedule: Q01DX005 (ip), vehicle: Klucel (hydroxypropylcellulose) (HPC) 97 % of control

CCCCCCCC(Nc1nncs1)Nc1nncs1
inactive: dose: 15.0 mg/kg/injection, schedule: Q01DX005 (ip), vehicle: saline with Tween-80 101 % of control | dose: 30.0 mg/kg/injection, schedule: Q01DX005 (ip), vehicle: saline with Tween-80 92 % of control | dose: 60.0 mg/kg/injection, schedule: Q01DX005 (ip), vehicle: saline with Tween-80 87 % of control and 90 % of control | dose: 240.0 mg/kg/injection, schedule: Q01DX005 (ip), vehicle: saline with Tween-80 91 % of control

ClC(Cl)=C(Cl)Cl
inactive: dose: 12.5 mg/kg/injection, schedule: Q01DX009 (ip), vehicle: saline with Tween-80 102 % of control and 107 % of control | dose: 25.0 mg/kg/injection, schedule: Q01DX009 (ip), vehicle: Klucel (hydroxypropylcellulose) (HPC) 100 % of control and 109 % of control | dose: 25.0 mg/kg/injection, schedule: Q01DX009 (ip), vehicle: saline with Tween-80 107 % of control and 114 % of control | dose: 50.0 mg/kg/injection, schedule: Q01DX009 (ip), vehicle: Klucel (hydroxypropylcellulose) (HPC) 98 % of control and 103 % of control | [1] 105 % of control and 112 % of control | dose: 100.0 mg/kg/injection, schedule: Q01DX009 (ip), vehicle: Klucel (hydroxypropylcellulose) (HPC) 100 % of control and 107 % of control | [2] 108 % of control and 112 % of control | dose: 200.0 mg/kg/injection, schedule: Q01DX009 (ip), vehicle: Klucel (hydroxypropylcellulose) (HPC) 100 % of control | [3] 107 % of control and 110 % of control | dose: 300.0 mg/kg/injection, schedule: Q01DX009 (ip), vehicle: Klucel (hydroxypropylcellulose) (HPC) 104 % of control and 106 % of control

Nc1ccccc1C(=O)Nc1ccccc1
inactive: [2] 88 % of control
